Read-outs that look alike come from different tables or passages of the source.
What was measured:
S. Aureus Smith = assay: In vitro antibacterial activity, MIC (modified Autotiter method); type: cell-based, Staphylococcus aureus; conditions: for MIC: Staphylococcus aureus, 20 h, read-out: MIC S. Aureus Smith
Method: (§1) The antibacterial and antifungal activity of representative examples of the compounds of Formula I was determined using a modification of the Autotiter method described by Goss, et al. Applied Microbiology 16 (9) 1,414-1,416 (1968) in which a 1,000 mcg./ml. solution of the test compound is prepared. To the first cup of the Autotray is added 0.1 ml. of the test solution. Activation of the Autotiter initiates a sequence of operations by which 0.05 ml. of the test compound solution is withdrawn from the cup by a Microtiter transfer loop and diluted in 0.05 ml. of sterile water. Following this operation, 0.05 ml. of inoculated double-strength semisynthetic medium (glucose) is added automatically to each cup. The overall operation results in final drug concentrations ranging from 500 to 0.06 mcg./ml. in twofold decrements. […] The compounds were thus tested as solutions against a variety of gram positive and gram negative bacteria including Staphylococcus aureus, Proteus mirabilis, Escherichia coli, Klebsiella pneumoniae, Pseudomonas aeruginosa, Streptococcus pyogenes, and against such fungi as Aspergillus niger, Candida albicans and Trichophyton mentagrophytes.

E. coli 100/B22 = assay: as above; type: cell-based, Escherichia coli; conditions: Escherichia coli, 100/B22, 20 h, 18-20 hours at 37° C.; read-out: MIC E. coli 100/B22
Method: as §1

E. coli AB1932-1 = assay: as above; type: cell-based, Escherichia coli; conditions: Escherichia coli, AB19321, 20 h, 18-20 hours at 37° C.; read-out: MIC E. coli AB1932-1
Method: as §1

E. coli Vogel = assay: as above; type: cell-based, Escherichia coli; conditions: for MIC: Escherichia coli, 20 h, read-out: MIC E. coli Vogel
Method: as §1

K. pneum. 39645 = assay: as above; type: cell-based, Klebsiella pneumoniae; conditions: for MIC: Klebsiella pneumoniae, 20 h, read-out: MIC K. pneum. 39645
Method: as §1

P. mirab. MGH-1 = assay: as above; type: cell-based, Proteus mirabilis; conditions: for MIC: Proteus mirabilis, 20 h, read-out: MIC P. mirab. MGH-1
Method: as §1

Ps. aerug. MGH-2 = assay: as above; type: cell-based, Pseudomonas aeruginosa; conditions: for MIC: Pseudomonas aeruginosa, 20 h, read-out: MIC Ps. aerug. MGH-2
Method: as §1

S. pyogen. C203 = assay: as above; type: cell-based, Streptococcus pyogenes; conditions: for MIC: Streptococcus pyogenes, 20 h, read-out: MIC S. pyogen. C203
Method: as §1

A. niger 16404 = assay: In vitro antifungal activity, MIC (modified Autotiter method); type: cell-based, Aspergillus niger; conditions: for MIC: Aspergillus niger, 16404, 20 h, read-out: MIC A. niger 16404
Method: as §1

C. albicans 10231 = assay: as above; type: cell-based, Candida albicans; conditions: for MIC: Candida albicans, 10231, 20 h, read-out: MIC C. albicans 10231
Method: as §1

C. albicans Wisc. = assay: as above; type: cell-based, Candida albicans; conditions: Candida albicans, 20 h, 18-20 hours at 37° C.; read-out: MIC C. albicans Wisc.
Method: as §1

T. menta. 9129 = assay: as above; type: cell-based, Trichophyton mentagrophytes; conditions: for MIC: Trichophyton mentagrophytes, 20 h, read-out: MIC T. menta. 9129
Method: as §1

Structure (SMILES) | MIC (S. Aureus Smith; 18-20 hours at 37° C.) [µg/mL] | MIC (E. coli 100/B22) [µg/mL] | MIC (E. coli AB1932-1) [µg/mL] | MIC (E. coli Vogel; 18-20 hours at 37° C.) [µg/mL] | MIC (K. pneum. 39645; 18-20 hours at 37° C.) [µg/mL] | MIC (P. mirab. MGH-1; 18-20 hours at 37° C.) [µg/mL] | MIC (Ps. aerug. MGH-2; 18-20 hours at 37° C.) [µg/mL] | MIC (S. pyogen. C203; 18-20 hours at 37° C.) [µg/mL] | MIC (A. niger 16404; 18-20 hours at 37° C.) [µg/mL] | MIC (C. albicans 10231; 18-20 hours at 37° C.) [µg/mL] | MIC (C. albicans Wisc.) [µg/mL] | MIC (T. menta. 9129; 18-20 hours at 37° C.) [µg/mL] | other results
CCCCCCCCCCNc1cc[n+](CCCCCCC[n+]2ccc(NCCCCCCCCCC)cc2)cc1 [Example 65, 1,7-bis-[4-(decylamino)-1-pyridinium]heptane dibromide] | 1 | 3.9 | 3.9 | 3.9 | 7.8 | 3.9 | 7.8 | 1 | 7.8 | 15.6 | 15.6 | 1.95 | –
Cc1cc(N)cc[n+]1CCCCCCCC[n+]1ccc(N)cc1C [VIII, 1,8-bis-(4-amino-2-methyl-1-pyridinium)octane dibromide, reference compound] | – | – | – | – | – | – | – | – | – | – | – | – | MIC (S. Aureus Smith): 31.3 µg/mL; MIC (E. coli Vogel): > 250 µg/mL; MIC (K. pneum. 39645): 500 µg/mL; MIC (P. mirab. MGH-1): > 500 µg/mL; MIC (Ps. aerug. MGH-2): > 500 µg/mL; MIC (S. pyogen. C203): 7.8 µg/mL; MIC (A. niger 16404): 125 µg/mL; MIC (C. albicans 10231): 125 µg/mL; MIC (T. menta. 9129): 15.6 µg/mL
CCCCCCCCNc1cc[n+](CCCCCCCCCCCC[n+]2ccc(NCCCCCCCC)cc2)cc1 [Example 45, 1,12-bis-[4-(octylamino)-1-pyridinium]dodecane dibromide] | 0.5 | 1.95 | 1.95 | 1.95 | 1 | 1.95 | 1.95 | 1 | 7.8 | 1 | 3.9 | 1 | –
CCCCCCCCCCNc1cc[n+](CCCCCCCC[n+]2ccc(NCCCCCCCCCC)cc2)cc1 [Example 66, 1,8-bis-[4-(decylamino)-1-pyridinium]octane dibromide] | 1 | 3.9 | 7.8 | 1.95 | 3.9 | 7.8 | 7.8 | 1.95 | 15.6 | 7.8 | 15.6 | 1.95 | –
CCCCCCNc1cc[n+](CCCCCCCCC[n+]2ccc(NCCCCCC)cc2)cc1 [Example 19, 1,9-bis-[4-(hexylamino)-1-pyridinium]-nonane dibromide] | 0.39 | 1.95 | 1.95 | 1.95 | 3.9 | 125 | 125 | 0.49 | 15.6 | 1.95 | 3.9 | 3.9 | –
Nc1cc[n+](CCCC[n+]2ccc(N)cc2)cc1 [III, 1,4-bis-(4-amino-1-pyridinium)butane dibromide, reference compound] | 125 | – | – | 250 | > 500 | > 500 | > 500 | 62.5 | 500 | > 500 | – | 500 | –
CCCCCCCCCCCCNc1cc[n+](CCCCCCCCCCCC[n+]2ccc(NCCCCCCCCCCCC)cc2)cc1 [Example 75, 1,12-bis-[4-(dodecylamino)-1-pyridinium]dodecane dibromide] | 31.3 | > 62.5 | > 62.5 | > 62.5 | > 62.5 | > 62.5 | > 62.5 | 15.6 | > 62.5 | > 62.5 | > 62.5 | 15.6 | –
Fc1ccc(Nc2cc[n+](CCCCCC[n+]3ccc(Nc4ccc(F)cc4)cc3)cc2)cc1 [Example 83B, 1,6-bis-[4-(p-fluorophenylamino)-1-pyridinium]hexane dibromide] | 15.6 | 15.6 | 15.6 | 31.3 | > 125 | > 125 | > 62.5 | 7.8 | 31.3 | 31.3 | 31.3 | 31.3 | –
CCCCCCCNc1cc[n+](CCCC[n+]2ccc(NCCCCCCC)cc2)cc1 [Example 20, 1,4-bis-[4-(heptylamino)-1-pyridinium]butane dibromide] | 0.98 | 15.6 | 7.8 | 31.3 | > 125 | > 250 | > 250 | 0.49 | 15.6 | 15.6 | 15.6 | 3.9 | –
CCCCCCCCCCNc1cc[n+](CCCCCCCCC[n+]2ccc(NCCCCCCCCCC)cc2)cc1 [Example 67, 1,9-bis-[4-(decylamino)-1-pyridinium]nonane dibromide] | 1 | 3.9 | 7.8 | 1.95 | 15.6 | 7.8 | 7.8 | 1.95 | 31.3 | 31.3 | 15.6 | 3.9 | –
Nc1cc[n+](CCCCCCCCC[n+]2ccc(N)cc2)cc1 [VII, 1,9-bis-(4-amino-1-pyridinium)nonane dibromide, reference compound] | 31.3 | – | – | 250 | 500 | > 500 | > 500 | 7.8 | 250 | 31.3 | – | 15.6 | –
CCCCCCCCNc1cc[n+](CCCCCCCCCC[n+]2ccc(NCCCCCCCC)cc2)cc1 [Example 10C, 1,10-bis-[4-(octylamino)-1-pyridinium]decane bis(1-oxo-2-pyridinethiolate)] | – | – | – | – | – | – | – | – | – | – | – | – | MIC S. Aureus Smith (S. Aureus Smith; 18-20 hours at 37° C.): 1.0 µg/mL; MIC E. coli Vogel (E. coli Vogel; 18-20 hours at 37° C.): 1.0 µg/mL; MIC K. pneum. 39645 (K. pneum. 39645; 18-20 hours at 37° C.): 1.95 µg/mL; MIC P. mirab. MGH-1 (P. mirab. MGH-1; 18-20 hours at 37° C.): 1.95 µg/mL; MIC Ps. aerug. MGH-2 (Ps. aerug. MGH-2; 18-20 hours at 37° C.): 3.9 µg/mL; MIC S. pyogen. C203 (S. pyogen. C203; 18-20 hours at 37° C.): 0.5 µg/mL; MIC A. niger 16404 (A. niger 16404; 18-20 hours at 37° C.): 1.95 µg/mL; MIC C. albicans 10231 (C. albicans 10231; 18-20 hours at 37° C.): 1.0 µg/mL; MIC T. menta. 9129 (T. menta. 9129; 18-20 hours at 37° C.): 1.0 µg/mL
Cc1cc(N)cc[n+]1CCCCCCCCC[n+]1ccc(N)cc1C [IX, 1,9-bis-(4-amino-2-methyl-1-pyridinium)nonane dibromide, reference compound] | 3.9 | – | – | 31.3 | 250 | > 500 | > 500 | 3.9 | 31.3 | 31.3 | – | 7.8 | –
Nc1cc[n+](CCCCCCCCCCCC[n+]2ccc(N)cc2)cc1 [V, 1,12-bis-(4-amino-1-pyridinium)dodecane dibromide, reference compound] | 1.95 | – | – | 62.5 | > 62.5 | > 125 | > 62.5 | 1 | 31.3 | 31.3 | – | 3.9 | –
CC(CCCCCCCCC[n+]1ccc(N)cc1)[n+]1ccc(N)cc1 (stereo not drawn) [VI, 1,10-bis-(4-amino-1-pyridinium)-1-methyldecane dibromide, reference compound] | 15.6 | – | – | 250 | 500 | > 500 | > 500 | 15.6 | 250 | 31.3 | – | 15.6 | –
Nc1cc[n+](CCCCCC[n+]2ccc(N)cc2)cc1 [IV, 1,6-bis-(4-amino-1-pyridinium)hexane dibromide, reference compound] | 125 | – | – | 250 | > 500 | > 500 | > 500 | 62.5 | 500 | > 500 | – | > 500 | –

— patent US4206215A, “Antimicrobial bis-[4-(substituted-amino)-1-pyridinium]alkanes” (Sterling Drug Inc., priority 1977, dated 1980)
